# PubChem BioAssay (NCI)
#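 Method: 48-hour compound exposure of cells in 96-well plates, five concentrations, linear interpolation of endpoints. GI50: concentration for 50% inhibition of growth. TGI denotes the concentration required for complete inhibition of growth.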
# Legend:
# Assay in all cases: NCI-60 cell line screen, 48 h
# PC-3 prostate = test system: PC-3 prostate
# T-47D breast = test system: T-47D breast
# IGROV1 ovarian = test system: IGROV1 ovarian
# HL-60(TB) leukemia = test system: HL-60(TB) leukemia
# HS 578T breast = test system: HS 578T breast
# UO-31 renal = test system: UO-31 renal
# K-562 leukemia = test system: K-562 leukemia
# SF-268 CNS = test system: SF-268 CNS
# RXF 393 renal = test system: RXF 393 renal
# EKVX NSCLC = test system: EKVX NSCLC
# BT-549 breast = test system: BT-549 breast
# U251 CNS = test system: U251 CNS
# M14 melanoma = test system: M14 melanoma
# SNB-75 CNS = test system: SNB-75 CNS
# NCI-H226 lung = test system: NCI-H226 lung
# SK-MEL-2 melanoma = test system: SK-MEL-2 melanoma
# A549 NSCLC = test system: A549 NSCLC
# A498 renal = test system: A498 renal
# MALME-3M melanoma = test system: MALME-3M melanoma
# SNB-19 CNS = test system: SNB-19 CNS
# 786-0 renal = test system: 786-0 renal
# OVCAR-3 ovarian = test system: OVCAR-3 ovarian
# ACHN renal = test system: ACHN renal
# HOP-92 NSCLC = test system: HOP-92 NSCLC
# MDA-MB-435 = test system: MDA-MB-435
# SN12C renal = test system: SN12C renal
# CCRF-CEM leukemia = test system: CCRF-CEM leukemia
# UACC-257 melanoma = test system: UACC-257 melanoma
# KM12 colon = test system: KM12 colon
# HOP-62 NSCLC = test system: HOP-62 NSCLC
# SK-MEL-5 melanoma = test system: SK-MEL-5 melanoma
# SK-MEL-28 melanoma = test system: SK-MEL-28 melanoma
# HT29 colon = test system: HT29 colon
# NCI/ADR-RES ovarian = test system: NCI/ADR-RES ovarian
# OVCAR-8 ovarian = test system: OVCAR-8 ovarian
# HCT-116 colon = test system: HCT-116 colon
# OVCAR-4 ovarian = test system: OVCAR-4 ovarian
# COLO 205 colon = test system: COLO 205 colon
# NCI-H460 lung = test system: NCI-H460 lung
# MCF7 breast = test system: MCF7 breast
# OVCAR-5 ovarian = test system: OVCAR-5 ovarian
# HCC-2998 colon = test system: HCC-2998 colon
# DU-145 prostate = test system: DU-145 prostate
# NCI-H522 lung = test system: NCI-H522 lung
# HCT-15 colon = test system: HCT-15 colon
# TK-10 renal = test system: TK-10 renal
# SW-620 colon = test system: SW-620 colon
# SR leukemia = test system: SR leukemia
# CAKI-1 renal = test system: CAKI-1 renal
# MOLT-4 leukemia = test system: MOLT-4 leukemia
# MDA-MB-231 breast = test system: MDA-MB-231 breast
# SF-539 CNS = test system: SF-539 CNS
# NCI-H23 lung = test system: NCI-H23 lung
# UACC-62 melanoma = test system: UACC-62 melanoma
# RPMI-8226 leukemia = test system: RPMI-8226 leukemia
# SK-OV-3 ovarian = test system: SK-OV-3 ovarian
# SF-295 CNS = test system: SF-295 CNS
# LOX IMVI melanoma = test system: LOX IMVI melanoma
smiles,measurement,setting,value
CCN(CC)Cc1cc(Nc2c3ccccc3nc3c4ccccc4n(C)c23)cc(CN(CC)CC)c1O,TGI,PC-3 prostate,11.8 µM
same,TGI,T-47D breast,15.7 µM
same,TGI,IGROV1 ovarian,24.6 µM
same,TGI,HL-60(TB) leukemia,12.2 µM
same,TGI,HS 578T breast,26.6 µM
same,TGI,UO-31 renal,6.68 µM
same,TGI,K-562 leukemia,> 35000 nM
same,TGI,SF-268 CNS,28.8 µM
same,TGI,RXF 393 renal,10.1 µM
same,TGI,EKVX NSCLC,21.4 µM
same,TGI,BT-549 breast,11.1 µM
same,TGI,U251 CNS,20.1 µM
same,TGI,M14 melanoma,3370 nM
same,TGI,SNB-75 CNS,25.2 µM
same,TGI,NCI-H226 lung,18.4 µM
same,TGI,SK-MEL-2 melanoma,7.6 µM
same,TGI,A549 NSCLC,31.9 µM
same,TGI,A498 renal,18.4 µM
same,TGI,MALME-3M melanoma,5.25 µM
same,TGI,SNB-19 CNS,27.4 µM
same,TGI,786-0 renal,14.9 µM
same,TGI,OVCAR-3 ovarian,11.2 µM
same,TGI,ACHN renal,13.8 µM
same,TGI,HOP-92 NSCLC,17.2 µM
same,TGI,MDA-MB-435,10.2 µM
same,TGI,SN12C renal,20.4 µM
same,TGI,CCRF-CEM leukemia,14.2 µM
same,TGI,UACC-257 melanoma,7.07 µM
same,TGI,KM12 colon,20.7 µM
same,TGI,HOP-62 NSCLC,20.4 µM
same,TGI,SK-MEL-5 melanoma,3720 nM
same,TGI,SK-MEL-28 melanoma,6.34 µM
same,TGI,HT29 colon,11.8 µM
same,TGI,NCI/ADR-RES ovarian,8.89 µM
same,TGI,OVCAR-8 ovarian,20.8 µM
same,TGI,HCT-116 colon,11 µM
same,TGI,OVCAR-4 ovarian,18 µM
same,TGI,COLO 205 colon,10.8 µM
same,TGI,NCI-H460 lung,16 µM
same,TGI,MCF7 breast,19.3 µM
same,TGI,OVCAR-5 ovarian,22.1 µM
same,TGI,HCC-2998 colon,19.2 µM
same,TGI,DU-145 prostate,23.3 µM
same,TGI,NCI-H522 lung,4.77 µM
same,TGI,HCT-15 colon,14.4 µM
same,TGI,TK-10 renal,28.1 µM
same,TGI,SW-620 colon,13.3 µM
same,TGI,SR leukemia,10.7 µM
same,TGI,CAKI-1 renal,29.2 µM
same,TGI,MOLT-4 leukemia,> 33.3 µM
same,TGI,MDA-MB-231 breast,13.4 µM
same,TGI,SF-539 CNS,15.2 µM
same,TGI,NCI-H23 lung,27 µM
same,TGI,UACC-62 melanoma,10.4 µM
same,TGI,RPMI-8226 leukemia,> 100000 nM
same,TGI,SK-OV-3 ovarian,32.5 µM
same,TGI,SF-295 CNS,17.6 µM
CCCCN1CCN(c2ccc3nc(-c4ccc5nc(-c6ccc(OC)c(OC)c6)[nH]c5c4)[nH]c3c2)CC1,GI50,PC-3 prostate,1160 nM
same,TGI,PC-3 prostate,3.29 µM
same,GI50,T-47D breast,399 nM
same,TGI,T-47D breast,2.85 µM
same,GI50,IGROV1 ovarian,1290 nM
same,TGI,IGROV1 ovarian,3.39 µM
same,GI50,HL-60(TB) leukemia,646 nM
same,TGI,HL-60(TB) leukemia,2.95 µM
same,GI50,HS 578T breast,1300 nM
same,TGI,HS 578T breast,4.31 µM
same,GI50,UO-31 renal,8.04 µM
same,TGI,UO-31 renal,> 39.9 µM
same,GI50,K-562 leukemia,280 nM
same,TGI,K-562 leukemia,1890 nM
same,GI50,SF-268 CNS,1350 nM
same,TGI,SF-268 CNS,6.64 µM
same,GI50,RXF 393 renal,917 nM
same,TGI,RXF 393 renal,2.15 µM
same,GI50,EKVX NSCLC,2140 nM
same,TGI,EKVX NSCLC,> 100 µM
same,GI50,BT-549 breast,1270 nM
same,TGI,BT-549 breast,2.69 µM
same,GI50,U251 CNS,1050 nM
same,TGI,U251 CNS,2.26 µM
same,GI50,M14 melanoma,213 nM
same,TGI,M14 melanoma,1520 nM
same,GI50,SNB-75 CNS,180 nM
same,TGI,SNB-75 CNS,3.84 µM
same,GI50,NCI-H226 lung,1340 nM
same,TGI,NCI-H226 lung,2.97 µM
same,GI50,SK-MEL-2 melanoma,1320 nM
same,TGI,SK-MEL-2 melanoma,2.77 µM
same,GI50,A549 NSCLC,1170 nM
same,TGI,A549 NSCLC,3.32 µM
same,GI50,A498 renal,894 nM
same,TGI,A498 renal,2.36 µM
same,GI50,MALME-3M melanoma,73.4 nM
same,TGI,MALME-3M melanoma,1.27 µM
same,GI50,OVCAR-3 ovarian,428 nM
same,TGI,OVCAR-3 ovarian,1.95 µM
same,GI50,ACHN renal,2270 nM
same,TGI,ACHN renal,12.4 µM
same,GI50,HOP-92 NSCLC,1520 nM
same,TGI,HOP-92 NSCLC,6.64 µM
same,GI50,MDA-MB-435,599 nM
same,TGI,MDA-MB-435,2 µM
same,GI50,SN12C renal,738 nM
same,TGI,SN12C renal,3.66 µM
same,GI50,CCRF-CEM leukemia,434 nM
same,TGI,CCRF-CEM leukemia,2.05 µM
same,GI50,UACC-257 melanoma,537 nM
same,TGI,UACC-257 melanoma,2.39 µM
same,GI50,KM12 colon,1370 nM
same,TGI,KM12 colon,3.13 µM
same,GI50,HOP-62 NSCLC,1060 nM
same,TGI,HOP-62 NSCLC,5.07 µM
same,GI50,SK-MEL-5 melanoma,599 nM
same,TGI,SK-MEL-5 melanoma,2130 nM
same,GI50,SK-MEL-28 melanoma,857 nM
same,TGI,SK-MEL-28 melanoma,2.24 µM
same,GI50,HT29 colon,389 nM
same,TGI,HT29 colon,1.98 µM
same,GI50,LOX IMVI melanoma,366 nM
same,TGI,LOX IMVI melanoma,1310 nM
same,GI50,NCI/ADR-RES ovarian,> 100 µM
same,TGI,NCI/ADR-RES ovarian,> 100 µM
same,GI50,OVCAR-8 ovarian,435 nM
same,TGI,OVCAR-8 ovarian,2.17 µM
same,GI50,HCT-116 colon,285 nM
same,TGI,HCT-116 colon,1.45 µM
same,GI50,OVCAR-4 ovarian,334 nM
same,TGI,OVCAR-4 ovarian,1.88 µM
same,GI50,COLO 205 colon,173 nM
same,TGI,COLO 205 colon,1.36 µM
same,GI50,NCI-H460 lung,616 nM
same,TGI,NCI-H460 lung,1.55 µM
same,GI50,MCF7 breast,196 nM
same,TGI,MCF7 breast,1.56 µM
same,GI50,OVCAR-5 ovarian,2320 nM
same,TGI,OVCAR-5 ovarian,6.09 µM
same,GI50,HCC-2998 colon,1040 nM
same,TGI,HCC-2998 colon,2.4 µM
same,GI50,DU-145 prostate,754 nM
same,TGI,DU-145 prostate,4.04 µM
same,GI50,NCI-H522 lung,258 nM
same,TGI,NCI-H522 lung,1.52 µM
same,GI50,HCT-15 colon,3.29 µM
same,TGI,HCT-15 colon,30 µM
same,GI50,TK-10 renal,1120 nM
same,TGI,TK-10 renal,3.44 µM
same,GI50,SW-620 colon,306 nM
same,TGI,SW-620 colon,1.76 µM
same,GI50,SR leukemia,308 nM
same,TGI,SR leukemia,1.38 µM
same,GI50,CAKI-1 renal,490 nM
same,TGI,CAKI-1 renal,3.98 µM
same,GI50,MOLT-4 leukemia,903 nM
same,TGI,MOLT-4 leukemia,3.84 µM
same,GI50,MDA-MB-231 breast,1540 nM
same,TGI,MDA-MB-231 breast,3.1 µM
same,GI50,SF-539 CNS,1220 nM
same,TGI,SF-539 CNS,2.63 µM
same,GI50,NCI-H23 lung,617 nM
same,TGI,NCI-H23 lung,2.03 µM
same,GI50,UACC-62 melanoma,431 nM
same,TGI,UACC-62 melanoma,1.94 µM
same,GI50,RPMI-8226 leukemia,458 nM
same,TGI,RPMI-8226 leukemia,2120 nM
same,GI50,SK-OV-3 ovarian,1430 nM
same,TGI,SK-OV-3 ovarian,6.34 µM
same,GI50,SF-295 CNS,647 nM
same,TGI,SF-295 CNS,3.54 µM
